Measurements taken from ChEMBL document CHEMBL3797106, “Potent and Selective Agonists of Sphingosine 1-Phosphate 1 (S1P1): Discovery and SAR of a Novel Isoxazole Based Series” (J Med Chem, 2016).
Active and inactive are the calls of the source. The calls are words filed in the database; no cut-off is given here.

Columns and labels:
[1] = Tmax in dog at 1 mg/kg, po; assay type: ADME, organism-based, Canis lupus familiaris; settings: in vivo
[2] = AUC in dog at 1 mg/kg, po; assay type: ADME, organism-based, Canis lupus familiaris; settings: in vivo
Canis familiaris [3] = assay: Clearance in dog at 1 mg/kg, iv relative to hepatic blood flow; assay type: ADME, organism-based, Canis lupus familiaris, Liver; settings: in vivo
[4] = Oral bioavailability in dog at 1 mg/kg; assay type: ADME, organism-based, Canis lupus familiaris; settings: in vivo
Canis familiaris [5] = assay: Ratio of Cmax to Cmin in dog at 1 mg/kg, po; assay type: ADME, organism-based, Canis lupus familiaris; settings: in vivo
Rattus norvegicus [6] = assay: Antiarthritic activity in complete Freund's adjuvant-induced Lewis rat arthritis model assessed as suppression of paw swelling at 0.03 mg/kg, po qd for 21 days started from day of immunization measured 3 times per week of compound dosing by water displacement plethysmometry; assay type: functional, organism-based
Rattus norvegicus [7] = assay: Antiarthritic activity in po dosed complete Freund's adjuvant-induced Lewis rat arthritis model assessed as inhibition of paw inflammation administered as qd for 21 days started from day of immunization; assay type: functional, organism-based
Mus musculus [8] = assay: Induction of delay in disease onset in po dosed C57BL/6 mouse experimental autoimmune encephalomyelitis model of multiple sclerosis administered as qd for 24 days started from day of immunization measured 3 times per week of compound dosing; assay type: functional, organism-based
Mus musculus [9] = assay: Inhibition of inflammation in spinal cord of po dosed C57BL/6 mouse experimental autoimmune encephalomyelitis model of multiple sclerosis administered as qd for 24 days started from day of immunization; assay type: functional, organism-based
[10] = biological target: T1, Sphingosine 1-phosphate receptor 1 (Homo sapiens, UniProt P21453); assay: Agonist activity at human S1P1 receptor expressed in CHO cell membranes after 45 mins by [35S]-GTPgammaS binding assay; assay type: functional
T1 sequence (P21453 whole entry): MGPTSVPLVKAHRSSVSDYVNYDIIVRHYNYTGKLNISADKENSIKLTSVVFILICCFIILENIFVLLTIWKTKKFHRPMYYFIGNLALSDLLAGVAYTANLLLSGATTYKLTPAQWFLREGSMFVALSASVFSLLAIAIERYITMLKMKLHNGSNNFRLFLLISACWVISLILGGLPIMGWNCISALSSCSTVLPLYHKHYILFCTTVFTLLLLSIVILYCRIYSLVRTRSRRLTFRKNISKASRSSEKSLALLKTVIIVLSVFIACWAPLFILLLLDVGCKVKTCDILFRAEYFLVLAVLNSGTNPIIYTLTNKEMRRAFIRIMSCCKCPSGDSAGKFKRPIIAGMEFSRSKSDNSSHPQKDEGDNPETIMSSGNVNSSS

[11] = Plasma concentration in Lewis rat at 1 mg/kg, po measured at 4 hrs; assay type: ADME, organism-based
[12] = biological target: T1, Sphingosine 1-phosphate receptor 1; assay: Induction of internalization of C-terminal GFP-fused human S1P1 receptor expressed in CHO […] after 50 mins; assay type: cell-based
[13] = biological target: T1, Sphingosine 1-phosphate receptor 1; assay: Induction of internalization of C-terminal GFP-fused human S1P1 receptor expressed in CHO […] assessed as remaining receptor level in cell membrane at 4.6 nM preincubated for 50 mins followed by compound washout measured at 16 hrs relative to control; assay type: cell-based
[14] = biological target: T1, Sphingosine 1-phosphate receptor 1; assay: Induction of internalization of C-terminal GFP-fused human S1P1 receptor expressed in CHO […] at 4.6 nM after 50 mins relative to control; assay type: cell-based
[15] = Plasma protein binding in human; assay type: ADME, cell-free; settings: read-out: PPB (converted)
[16] = Plasma protein binding in mouse; assay type: ADME, cell-free; settings: read-out: PPB
[17] = Dissociation constant, pKa of the compound; assay type: physicochemical
[18] = Permeability across apical to basolateral side in human Caco2 cells; assay type: ADME, cell-based; settings: Caco-2, read-out: permeability
Homo sapiens [19] = organism: Homo sapiens; assay: Inhibition of sodium channel (unknown origin) at 10 uM by patch clamp method relative to control
Homo sapiens [20] = organism: Homo sapiens; assay: Inhibition of calcium channel (unknown origin) at 10 uM by patch clamp method relative to control
Cytochrome P450 2B6 = biological target: T2, Cytochrome P450 2B6 (Homo sapiens, UniProt P20813); assay: Inhibition of CYP2B6 (unknown origin); assay type: ADME
T2 sequence (P20813 whole entry): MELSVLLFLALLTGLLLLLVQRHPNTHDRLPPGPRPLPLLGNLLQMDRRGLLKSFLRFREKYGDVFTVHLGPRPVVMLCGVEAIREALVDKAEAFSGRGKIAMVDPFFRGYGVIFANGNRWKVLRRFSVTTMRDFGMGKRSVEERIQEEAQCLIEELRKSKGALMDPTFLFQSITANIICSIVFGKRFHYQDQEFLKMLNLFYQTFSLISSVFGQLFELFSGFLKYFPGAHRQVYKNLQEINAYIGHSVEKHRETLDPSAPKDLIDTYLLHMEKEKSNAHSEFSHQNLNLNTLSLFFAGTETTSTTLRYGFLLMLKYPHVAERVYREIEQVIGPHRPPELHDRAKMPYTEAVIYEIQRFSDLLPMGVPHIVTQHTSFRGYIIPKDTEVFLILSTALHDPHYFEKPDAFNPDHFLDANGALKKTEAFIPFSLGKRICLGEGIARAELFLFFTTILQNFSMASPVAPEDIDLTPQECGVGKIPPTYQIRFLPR

Cytochrome P450 2C8 = biological target: T3, Cytochrome P450 2C8 (Homo sapiens, UniProt P10632); assay: Inhibition of CYP2C8 (unknown origin); assay type: ADME
T3 sequence (P10632 whole entry): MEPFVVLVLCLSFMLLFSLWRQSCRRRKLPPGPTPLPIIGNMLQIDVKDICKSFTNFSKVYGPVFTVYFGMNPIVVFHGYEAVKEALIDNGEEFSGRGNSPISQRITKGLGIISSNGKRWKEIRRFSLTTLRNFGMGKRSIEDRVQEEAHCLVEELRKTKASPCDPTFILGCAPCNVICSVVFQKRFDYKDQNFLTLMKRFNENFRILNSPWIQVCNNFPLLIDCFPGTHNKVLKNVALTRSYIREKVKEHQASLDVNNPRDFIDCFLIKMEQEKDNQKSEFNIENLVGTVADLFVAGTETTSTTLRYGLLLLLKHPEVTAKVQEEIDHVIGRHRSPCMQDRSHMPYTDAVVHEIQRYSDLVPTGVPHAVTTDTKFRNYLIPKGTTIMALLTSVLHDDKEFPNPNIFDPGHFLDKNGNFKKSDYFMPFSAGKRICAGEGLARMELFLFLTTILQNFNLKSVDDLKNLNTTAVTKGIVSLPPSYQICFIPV

Cytochrome P450 2C19 = Cytochrome P450 2C19 (Homo sapiens, UniProt P33261); assay: Inhibition of CYP2C19 (unknown origin); assay type: ADME
Chain of Cytochrome P450 2C19 (P33261 whole entry): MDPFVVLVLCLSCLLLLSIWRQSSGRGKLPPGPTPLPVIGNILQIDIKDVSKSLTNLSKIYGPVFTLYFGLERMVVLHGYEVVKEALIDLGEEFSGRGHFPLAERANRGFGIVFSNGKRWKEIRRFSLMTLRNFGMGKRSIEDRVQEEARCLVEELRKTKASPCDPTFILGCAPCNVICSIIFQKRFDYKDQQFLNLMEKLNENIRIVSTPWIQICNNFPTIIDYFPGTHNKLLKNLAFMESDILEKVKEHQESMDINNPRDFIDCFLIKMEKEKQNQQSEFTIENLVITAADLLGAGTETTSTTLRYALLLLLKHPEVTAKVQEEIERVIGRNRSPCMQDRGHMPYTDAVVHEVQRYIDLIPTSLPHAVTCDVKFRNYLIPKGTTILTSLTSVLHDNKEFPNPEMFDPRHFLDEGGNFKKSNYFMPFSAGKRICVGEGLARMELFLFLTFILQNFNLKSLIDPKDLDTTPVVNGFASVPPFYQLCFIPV

Cytochrome P450 3A4 = Cytochrome P450 3A4 (Homo sapiens, UniProt P08684); assay: Inhibition of CYP3A4 (unknown origin); assay type: ADME
Chain of Cytochrome P450 3A4 (P08684 whole entry): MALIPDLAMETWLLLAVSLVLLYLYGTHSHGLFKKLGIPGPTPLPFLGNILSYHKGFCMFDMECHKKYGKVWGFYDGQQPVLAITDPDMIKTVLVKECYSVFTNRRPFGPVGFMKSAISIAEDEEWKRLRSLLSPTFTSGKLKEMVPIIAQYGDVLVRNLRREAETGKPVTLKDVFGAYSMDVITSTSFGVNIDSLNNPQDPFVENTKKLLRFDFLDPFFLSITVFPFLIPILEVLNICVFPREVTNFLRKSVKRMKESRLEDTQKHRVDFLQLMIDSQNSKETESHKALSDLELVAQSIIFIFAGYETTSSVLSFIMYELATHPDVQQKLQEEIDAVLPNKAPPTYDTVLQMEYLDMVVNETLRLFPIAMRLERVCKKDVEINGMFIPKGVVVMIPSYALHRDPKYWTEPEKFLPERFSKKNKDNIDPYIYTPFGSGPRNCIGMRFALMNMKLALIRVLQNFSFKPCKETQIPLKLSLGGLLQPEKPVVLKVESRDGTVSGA

[21] = Permeability of the compound at pH 7.4 by PAMPA; assay type: ADME; settings: read-out: permeability
[22] = Plasma concentration in Lewis rat at 0.3 mg/kg, po measured at 4 hrs; assay type: ADME, organism-based
[23] = Plasma concentration in Lewis rat at 0.3 mg/kg, po measured at 24 hrs; assay type: ADME, organism-based
Plasma = assay: Ratio drug level in Lewis rat plasma at 0.3 mg/kg, po at 4 hrs to drug level in Lewis rat plasma at 0.3 mg/kg, po at 24 hrs; assay type: ADME, organism-based; settings: in vivo
[24] = Volume of distribution at steady state in mouse at 2 mg/kg, iv; assay type: ADME, organism-based; settings: in vivo, read-out: Vdss
Mus musculus [25] = assay: Oral bioavailability in mouse at 10 mg/kg; assay type: ADME, organism-based; settings: in vivo
Mus musculus [26] = assay: Ratio of Cmax to Cmin in mouse at 10 mg/kg, po; assay type: ADME, organism-based; settings: in vivo
[27] = Cmax in rat at 5 mg/kg, po; assay type: ADME, organism-based; design: dose 5 mg/kg, route oral; settings: in vivo
[28] = Tmax in rat at 5 mg/kg, po; assay type: ADME, organism-based; settings: in vivo
[29] = AUC in rat at 5 mg/kg, po; assay type: ADME, organism-based; settings: in vivo
[30] = Clearance in rat at 2 mg/kg, iv; assay type: ADME, organism-based; settings: in vivo
Rattus norvegicus [31] = assay: Clearance in rat at 2 mg/kg, iv relative to hepatic blood flow; assay type: ADME, organism-based; settings: in vivo
[32] = Cmax in cynomolgus monkey at 5 mg/kg, po; assay type: ADME, organism-based, Macaca fascicularis; design: dose 5 mg/kg, route oral; settings: in vivo
[33] = Tmax in cynomolgus monkey at 5 mg/kg, po; assay type: ADME, organism-based, Macaca fascicularis; settings: in vivo
[34] = Mean residence time in cynomolgus monkey at 2 mg/kg, iv; assay type: ADME, organism-based, Macaca fascicularis; settings: in vivo
[35] = Clearance in cynomolgus monkey at 2 mg/kg, iv; assay type: ADME, organism-based, Macaca fascicularis; settings: in vivo

O=C(O)C1CN(Cc2ccc(-c3noc(-c4onc(-c5ccccc5)c4C(F)(F)F)n3)cc2)C1
Tmax [1]: 8.9 h | AUC [2]: 11 µM·h | CL (Canis familiaris [3]): 5.2% | bioavailability [4]: 45% | Ratio (Canis familiaris [5]): 9 | Activity (Rattus norvegicus [6]): inactive | inhibition (Rattus norvegicus [7]): Dose-dependent effect | Activity (Mus musculus [8]): Dose-dependent effect | inhibition (Mus musculus [9]): Dose-dependent effect | EC50 [10]: 0.00047 µM | concentration at 4 h [11]: 2100 nM | EC50 [12]: 0.00027 µM | Activity [13]: 40% | Activity [14]: > 90% | fraction unbound [15]: 0.003 | fraction unbound [16]: 0.001 | pKa [17]: 3.7 | Papp A→B [18]: 10.4 ×10⁻⁶ cm/s | inhibition (Homo sapiens [19]): < 5% | inhibition (Homo sapiens [20]): 12% | IC50 (Cytochrome P450 2B6): > 40 µM | IC50 (Cytochrome P450 2C8): > 40 µM | IC50 (Cytochrome P450 2C19): > 40 µM | IC50 (Cytochrome P450 3A4): > 40 µM | Papp [21]: 103 ×10⁻⁶ cm/s | concentration at 4 h [22]: 180 nM | concentration at 24 h [23]: 25 nM | Ratio (Plasma): 7 | Vd [24]: 0.2 L/kg | F (Mus musculus [25]): 71% | Ratio (Mus musculus [26]): 2 | Cmax [27]: 3900 nM | Tmax [28]: 3.3 h | AUC [29]: 44 µM·h | clearance [30]: 1.7 mL/min/kg | CL (Rattus norvegicus [31]): 2.4% | Cmax [32]: 4000 nM | Tmax [33]: 1 h | MRT [34]: 2.2 h | clearance [35]: 5.2 mL/min/kg
